Laboratory results: patent US12161669B2, “Compositions and methods for cell targeting therapies” (UMC UTRECHT HOLDING B.V., priority 2017, dated 2024)
pKd: −log10 of the molar value.

How the values were obtained:
RhoB GTPase = target: T1, RhoB GTPase (Homo sapiens, UniProt P62745); test: Biolayer interferometry of RhoB binding to BTN3A1 (CD277) intracellular domains; conditions: for kd (1/s) / kd(1/Ms) / pKd: BLI, 1:1 binding model; for pKd: RhoB immobilized on Ni-NTA biosensor, cHDMAPP at 1:1 where named; for RhoB binding to recombinant CD277 intracellular domain constructs: without phosphoantigen
T1 construct: The full length RhoB protein was cloned into the pET 28a vector; thrombin cleavage site (C); made in house; host or cells: Escherichia coli BL21
Method: To determine whether CD277 exists as a homodimer when expressed in a cellular context, and to study RhoB-CD277 interactions at even higher resolution, close interactions by utilizing fluorescence resonance energy transfer (FRET) were examined. Flow cytometry FRET measurements were performed on ABP-sensitive HEK 293 cells, by either overexpressing FRET compatible fusion proteins or labeling endogenous proteins with antibodies coupled to FRET-compatible fluorochromes. […] Biolayer Interferometry (BLI) was used to formally define a possible docking site for RhoB on the intracellular domain of CD277.
The interactions between RhoB and BTN3A1 full-length intracellular domain (BFI) or BTN3A1 B30.2 domain were measured using Biolayer interferometry (BLItz, FortéBio). The BLI buffer used in baseline equilibration and the dissociation step was prepared with 10 mM Hepes pH7.2, 150 mM NaCl, 0.02% azide, 5 mM MgCl2, 4 mM BME. RhoB, at a concentration of 2 mg/ml, was immobilized on the Ni-NTA biosensor hydrated with the BLI buffer using the basic kinetics method with the following parameters: 30 s for baseline, 300 s for association and 300 s for dissociation. The RhoB-mounted biosensor was then blocked by 1 mg/ml BSA and equilibrated with the BLI buffer using a similar method with the following parameters: 30 s for baseline, 120 s for association and 120 s for dissociation. The buffer run served as a reference for the subsequent experiments. […] The ratio between cHDMAPP and BFI or B30.2 domain was kept at 1:1 for these measurements. The rate and affinity constants for binding interactions were analyzed by Biaevulation (Biacore Life Sciences). The data was truncated to 180 s and the ka and kd were fitted simultaneously using 1:1 binding with drift baseline model.

CD277 [1] = test: FRAP of CD277-emGFP membrane mobility in HEK 293 cells; format: cell-based; conditions: 293 HEK cells; for CD277 membrane mobility (immobile fraction, FRAP): single agent
Method: FRAP analysis was performed as previously described (Harly et al., 2012, Sandstrom et al., 2014). In brief, HEK293FT cells expressing either EmGFP-fused CD277 were laid on m-slides (Ibidi) and analyzed using a Nikon A1 RS confocal microscope (60×NA 1.40 oil immersion objective). Selected rectangular areas were photobleached for 500 ms by using full power of laser intensity (>90% of loss of fluorescence). Images were collected every 5 s, before (30 s) and after (120 s) bleaching using low laser intensity. Images were analyzed with Metamorph 7.5 (Molecular Devices, Universal Imaging) and NIS (Nikon) imaging software. The resulting curves were fitted using one-phase exponential equations.

EBV-LCL 93 cells = test: IFNγ by Vγ9Vδ2 TCR+ T cells against Rho-modulator pretreated EBV-LCL 93; format: cell-based; conditions: target cell pretreatment with Rho activator, in combination with pamidronate or IPP
Method: (§1) The impact of RhoB GTPase activity on Vγ9Vδ2 TCR+ T cell activation was assessed by […] different tumor cell lines with either the Rho GTPase activator calpeptin or inhibitor C3 transferase. […] To specify that enzymatic activity of RhoB regulates tumor cell recognition by Vγ9Vδ2 TCR+ T cells, we transfected HEK 293 cells with wildtype or dominant negative form corresponding to the GDP-bound state (RhoB-DN), or with the constitutively active form corresponding to the GTP-bound form (RhoB-CA) of RhoB (Kamon et al., 2006) and used them as target cells for Vγ9Vδ2 TCR+ T cells (FIG. 4E).
(§2) Alternatively, Vγ9Vδ2 TCR-transduced T cells and target cells were cocultured as above in round-bottom 96-well plates, and IFNγ levels in supernatants were measured by ELISA. Where indicated, target cells were pretreated with pamidronate (100 μM), IPP (15 μM), FTI (10 μM), GGTI (50 μM), calpeptin (2 μg/ml) or C3 transferase (20 μg/ml) prior to coincubation. For testing stimulation of WT1 αβTCR-transduced T cells, the HLA-A2+ cell lines EBV-LCL 48 and MZ1851RC were pulsed with 10 μM WT1126−134 peptide.

CD277 and F-actin = test: Colocalization of CD277 and F-actin in HEK 293 cells; format: cell-based
Method: To determine colocalization between BTN3 molecules and the actin cytoskeleton, HEK 293 cells were grown onto poly-L-lysin-coated coverslips and pretreated with either calpeptin (2 μg/ml) or C3 transferase (20 μg/ml) prior to treating samples with pamidronate Cells were fixed, permeabilized and BTN3 and F-actin were stained with DyLight 680-conjugated BTN3 antibody (clone BT3.1, Novus Biologicals) and Fluorescein-coupled phalloidin (Sigma), respectively. The correlation coefficient between BTN3 and F-actin signal was determined as a measure of colocalization using Volocity software.

LCL 48 cells = test: IFNγ by Vγ9Vδ2 TCR+ T cells against Rho-modulator pretreated EBV-LCL 48; format: cell-based; conditions: target cell pretreatment with Rho inhibitor, in combination with pamidronate or IPP
Method: as §1, §2

CD277 [2] = test: Flow cytometry FRET between BODIPY FL-stained membrane and anti-CD277 mAbs (CD277 conformational change), HEK 293 cells; format: cell-based; conditions: with ABP
Method: Conformational change of BTN3 molecule was determined similarly as described in ([…] et al., 2001). Cells were labeled with 5 ug/ml BODIPY-FL DPHE (donor) (Life Technologies) for 10 minutes on ice and then 10 minutes at 37 C, then washed extensively with ice-cold PBS. Cells were subsequently labeled with mouse anti-CD277 mAbs (either clone #20.1 or #103.2) and Alexa594-conjugated Goat anti-Mouse Fab fragments (Jackson ImmunoResearch). After washing, cells were resuspended in ice cold PBS and measured immediately using a FACS Canto-II flowcytometer (BD). FRET efficiency was calculated from the fractional decrease of the donor fluorescence in the presence of the acceptor.

T1 sequence (O00481 272-513 partner limits assumed): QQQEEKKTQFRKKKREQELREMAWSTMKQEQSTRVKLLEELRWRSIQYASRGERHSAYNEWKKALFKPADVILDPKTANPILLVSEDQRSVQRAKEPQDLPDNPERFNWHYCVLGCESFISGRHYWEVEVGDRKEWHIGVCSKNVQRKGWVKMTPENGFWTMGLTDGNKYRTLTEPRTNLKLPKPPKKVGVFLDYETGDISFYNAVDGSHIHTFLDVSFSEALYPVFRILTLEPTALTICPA
T1 sequence (P62745 1-192 limits assumed): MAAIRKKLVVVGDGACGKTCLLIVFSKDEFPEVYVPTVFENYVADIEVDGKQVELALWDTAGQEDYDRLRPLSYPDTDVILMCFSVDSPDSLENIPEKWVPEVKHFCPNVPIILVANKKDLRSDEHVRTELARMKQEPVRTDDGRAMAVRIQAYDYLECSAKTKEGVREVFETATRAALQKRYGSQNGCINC

| Compound | kd (1/s) (RhoB GTPase) | kd(1/Ms) (RhoB GTPase) | pKd (RhoB GTPase) | RhoB binding to recombinant CD277 intracellular domain constructs (RhoB GTPase) | CD277 membrane mobility (immobile fraction, FRAP) (CD277 [1]) | also measured |
| --- | --- | --- | --- | --- | --- | --- |
| RhoB-B30.2: interaction of RhoB with recombinant CD277 B30.2 domain lacking the N terminal connector region | 0.206 s⁻¹ | 2020 M⁻¹ s⁻¹ | 3.99 | significantly reduced |  |  |
| O=P(O)(O)C(O)(Cn1ccnc1)P(=O)(O)O [zoledronate, zoledronic acid monohydrate] |  |  |  |  | decreased CD277 membrane mobility |  |
| CCCC[C@@H](C=O)NC(=O)[C@H](CC(C)C)NC(=O)OCc1ccccc1 [calpeptin] |  |  |  |  | induced immobilization of CD277 to similar levels as those of ABP treatment alone | recognition of EBV-LCL 93 cells by Vγ9Vδ2 TCR+ T cells (IFNγ) (EBV-LCL 93 cells): significantly sensitized; colocalization between CD277 and F-actin (CD277 and F-actin; single agent vs medium): reduced tantalization between CD277 and F-actin to comparable levels observed with ABP treatment |
| C/C(=C\CCP(=O)(O)OP(=O)(O)O)CO [cHDMAPP, (2E)-1-hydroxy-2-methylpent-2-enyl-pyrophosphonate] |  |  |  |  |  | RhoB binding to BFI in the presence of soluble phosphoantigen (RhoB GTPase; phosphoantigen 1:1 with BFI): almost completely abolished |
| RhoB-BFI: interaction of RhoB GTPase with recombinant full length BTN3A1 intracellular domain (BFI) | 0.04351 s⁻¹ | 2200 M⁻¹ s⁻¹ | 4.71 | detected |  |  |
| C3 transferase |  |  |  |  |  | activation of Vγ9Vδ2 TCR+ T cells by LCL 48 cells (IFNγ) (LCL 48 cells): significantly reduced activation; effect on ABP-induced immobilization of CD277 (CD277 [1]; together with zoledronate): counteracted this ABP-effect; effect on ABP-induced CD277-actin segregation (CD277 and F-actin; pretreatment before pamidronate): prevented ABP-induced CD277-actin segregation; effect on ABP-driven conformational changes of the CD277 homodimer (CD277 [2]): did not prevent |
